# Where two headings read alike, the source gives them in different places.
# Columns and labels:
# NFκB = NFκB luciferase reporter assay in TNF-α stimulated A549 cells (E-selectin promoter); format: cell-based; settings: % inhibition or IC50 in μM; for IC50: Homo sapiens
# Method: A549 cells were stably transfected with an E-selectin promoter containing three NFκB binding sites driving luciferase expression. For the assay, 5×10^4 cells were incubated in 96 well round bottom plates overnight in 100 μL of 10% FBS/RPMI medium at 37° C. in a 5% CO2 atmosphere. The following morning the medium was removed and 90 μL of a 1% DMSO solution of test compound solution was added and the plates incubated for 1 hour. 10 μL of TNF-α was added at its EC50 (normally 6 ng/mL FAC) to each well and the plate incubated for 5 hours. 100 μL of luciferase buffer was added, and after 10 minutes luminescence was read on a Wallac Victor 1420 Multilabel Counter. The data obtained from the Wallac Victor was converted into % inhibition data or IC50 measured in μM.
# A549 cells = experiment: Inhibition of TNF-α induced apoptosis in A549 cells (crystal violet); format: cell-based; settings: Homo sapiens, percent inhibition at 20 μM or IC50 in μM
# Method: The protocol used for determining inhibition of apoptosis in A549 cells was adopted from a system previously described (K. Last-Barney et al., J. of Immunology 141:527-530, 1988). Briefly, 10^5 cells in 200 μL 10% FBS/RPMI antibiotic containing culture medium were plated into 96 well round bottom culture plates and allowed to adhere for 6 hours at 37° C. in a 5% CO2 atmosphere. The media was removed and 100 μL of RPMI+1 μg/mL actinomycin-D was added to each well, followed by 90 μL of test compound solution in 1% DMSO. This was incubated for 1 hour 10 AL TNF-α was added at its EC50 (normally 1 ng/mL FAC) and the plates incubated for 18 hours. The media was aspirated from the plates and 100 μL of 0.5% crystal violet in 20% methanol was added. After 10 minutes the plates were rinsed with water to remove excess stain, air dried, and read on a Spectramax at a wavelength of 590 nm. The data obtained from the Spectramax was converted into percent inhibition data at a concentration of 20 μM or IC50 measured in μM.
# CXCR1 = target: T1, CXCR1 (Homo sapiens, UniProt P25024); experiment: CXCR1 radioligand binding assay with 125I labeled IL-8; settings: human recombinant CHO cells; for IC50: percent inhibition or IC50, read-out: CXCR1 inh.
# T1 construct: host or cells: CHO cells
# T1 sequence (P25024 1-350): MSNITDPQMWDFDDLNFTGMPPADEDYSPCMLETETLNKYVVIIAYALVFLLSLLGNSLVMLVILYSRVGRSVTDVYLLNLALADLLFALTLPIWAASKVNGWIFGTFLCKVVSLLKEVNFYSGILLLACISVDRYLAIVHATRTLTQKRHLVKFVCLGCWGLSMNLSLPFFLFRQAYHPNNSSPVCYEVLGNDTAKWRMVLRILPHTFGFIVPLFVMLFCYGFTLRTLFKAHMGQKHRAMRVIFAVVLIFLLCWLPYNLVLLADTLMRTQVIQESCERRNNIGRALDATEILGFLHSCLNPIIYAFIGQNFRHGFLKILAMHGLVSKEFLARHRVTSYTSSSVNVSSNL
# Source text: (§1) This assay is a radioligand binding assay in human recombinant CHO cells with ^125I labeled IL-8 as the ligand. The assay procedure is described in Ahuja, S. K.; Murphy, P. M;.
# CXCR2 = target: T2, CXCR2 (Homo sapiens, UniProt P25025); experiment: CXCR2 radioligand binding assay with 125I labeled IL-8; settings: human recombinant CHO cells; for IC50: percent inhibition or IC50, read-out: CXCR2 2 inh.; for CXCR2 2 inh.: percent inhibition or IC50
# T2 construct: host or cells: CHO cells
# T2 sequence (P25025 1-360): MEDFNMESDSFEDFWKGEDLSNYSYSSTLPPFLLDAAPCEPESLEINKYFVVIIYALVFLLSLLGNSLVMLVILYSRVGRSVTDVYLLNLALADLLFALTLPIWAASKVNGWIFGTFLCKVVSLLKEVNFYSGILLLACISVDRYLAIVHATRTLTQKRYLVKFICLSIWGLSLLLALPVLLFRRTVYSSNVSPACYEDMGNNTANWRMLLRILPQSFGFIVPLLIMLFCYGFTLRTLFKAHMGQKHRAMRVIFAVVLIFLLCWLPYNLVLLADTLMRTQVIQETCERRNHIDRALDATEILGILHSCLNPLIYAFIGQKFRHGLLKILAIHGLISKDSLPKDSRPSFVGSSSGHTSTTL
# Source text: as §1
# [1] = TNF-α stimulated A549 cells, E-selectin promoter luciferase, given as class symbols, read-out: NFκB inh
# [2] = inhibition of TNF-α induced apoptosis in A549 cells, given as class symbols, read-out: Apopt inh
# [3] = A549 cells with NFκB luciferase reporter, TNF-α at its EC50, 5 hours
SMILES,IC50 (NFκB; [1]),IC50 (A549 cells; [2]),further results
CCCOC(=O)[C@H]1[C@H](C(=O)OCC[Si](C)(C)C)C2C/C(=N\OCC(=O)N3CCN(c4ccccc4)CC3)[C@H]1c1cc(O)ccc12 (stereo in doubt) [Example 73],10 to 50 µM,–,–
CCCOC(=O)[C@H]1[C@H](C(=O)OCC[Si](C)(C)C)C2CC3(OCCO3)[C@H]1c1cc(O)ccc12 [Example 97],10 to 50 µM,–,inhibition at 20 µM (A549 cells; [2]): 6 to 64%
C=CCOC(=O)c1ccc(COc2ccc3c(c2)[C@@H]2C(=O)CC3[C@@H](C(=O)N(C)CC(=O)NCc3c(OC)cc(OC)cc3OC)[C@H]2C(=O)OCC[Si](C)(C)C)cc1 [Example 110],–,–,inhibition at 20 µM (A549 cells; [2]): 6 to 64%
CCCOC(=O)[C@H]1[C@H](C(=O)OCCC(C)(C)C)C2CC(=O)[C@H]1c1cc(O)ccc12 [Example 107],10 to 50 µM,–,–
CCCNC1CC2c3ccc(O)cc3[C@H]1[C@@H](C(=O)OCCC)[C@@H]2C(=O)OCC[Si](C)(C)C (stereo partly drawn) [Example 85],10 to 50 µM,–,–
CCCOC(=O)[C@H]1[C@H](C(=O)OCC[Si](C)(C)C)C2CC(N(C)C(C)=O)[C@H]1c1cc(OC(C)=O)ccc12 (stereo partly drawn) [Example 92],10 to 50 µM,–,–
COc1ccc(COC(=O)[C@H]2[C@H](C(=O)OCC[Si](C)(C)C)C3CC(O)[C@H]2c2cc(O)ccc23)c(OC)c1 (stereo partly drawn) [Example 95],–,–,inhibition at 20 µM (A549 cells; [2]): 6 to 64%
CCCOC(=O)C1C(C(=O)OCC[Si](C)(C)C)C2C/C(=N\Nc3ccccc3)[C@H]1c1cc(O)ccc12 (stereo partly drawn) [Example 111],–,–,"IC50 (NFκB; A549 cells with NFκB luciferase reporter, TNF-α at its EC50, 5 hours, read-out: NFkB inh.): 10 to 50 µM; IC50 (A549 cells; A549 cells, actinomycin-D + TNF-α at its EC50, 18 hours, read-out: Apopt. Inh.): < 10 µM; IC50 (CXCR1): < 10 µM; IC50 (CXCR2): < 10 µM"
CCCOC(=O)[C@H]1[C@H](C(=O)OCC[Si](C)(C)C)C2C/C(=N\NS(=O)(=O)c3ccccc3)[C@H]1c1cc(O)ccc12 [Example 58],–,10 to 50 µM,–
CCCOC(=O)[C@H]1[C@H](C(=O)OCC[Si](C)(C)C)C2C/C(=N\NC(=S)NC)[C@H]1c1cc(O)ccc12 [Example 81],–,< 10 µM,–
COc1ccc(COC(=O)[C@H]2[C@H](C(=O)OCC[Si](C)(C)C)C3CC(O)[C@H]2c2cc(O)ccc23)c(OC)c1 (stereo partly drawn) [Example 96],–,< 10 µM,–
CCCOC(=O)C1C(C(=O)OCC[Si](C)(C)C)C2C[C@@H](Nc3ccccc3)[C@H]1c1cc(O)ccc12 (stereo partly drawn) [Example 115],–,–,NFkB inh. (NFκB; [3]): * (refers to percent inhibition from 6% to 64%); CXCR1 inh. (CXCR1; percent inhibition or IC50): * (refers to percent inhibition from 10-36%); CXCR2 2 inh. (CXCR2): * (refers to percent inhibition from 10-36%)
CCCOC(=O)[C@H]1[C@H](C(=O)OCC[Si](C)(C)C)C2CC(NC)[C@H]1c1cc(O)ccc12 (stereo partly drawn) [Example 86],10 to 50 µM,–,–
CCCOC(=O)[C@H]1[C@H](C(=O)OCC[Si](C)(C)C)C2CC(C)(O)[C@H]1c1cc(O)ccc12 (stereo partly drawn) [Example 99],10 to 50 µM,–,–
"CCCOC(=O)[C@H]1[C@H](C(=O)OCC[Si](C)(C)C)C2C/C(=N\OCc3nnsc3Cl)[C@H]1c1cc(O)ccc12 (racemic) [Example 71, 11-(5-Chloro-[1,2,3]thiadiazol-4-ylmethoxyimino)-4-hydroxy-tricyclo[6.2.2.0^2,7]dodeca-2(7),3,5-triene-9,10-dicarboxylic acid 10-propyl ester 9-(2-trimethylsilanyl-ethyl) ester]",10 to 50 µM,< 10 µM,–
CCCOC(=O)[C@H]1[C@H](C(=O)OCCS(=O)(=O)c2ccc(C)cc2)C2CC(=O)[C@H]1c1cc(O)ccc12 [Example 106],10 to 50 µM,–,–
CCCOC(=O)[C@@H]1C2C(=O)CC(c3ccc(O)cc32)[C@H]1C(=O)OCCC[Si](C)(C)C (stereo partly drawn) [Example 109],10 to 50 µM,–,–

SMILES,IC50 (NFκB; [1]),IC50 (A549 cells; [2]),further results
C=C1CC2c3ccc(O)cc3[C@H]1[C@@H](C(=O)OCCC)[C@@H]2C(=O)OCC[Si](C)(C)C [Example 101],–,< 10 µM,–
CCCOC(=O)[C@H]1[C@H](C(=O)OCC[Si](C)(C)C)C2CC(N(Cc3ccc(C)cc3)C(C)=O)[C@H]1c1cc(O)ccc12 (stereo partly drawn) [Example 91],10 to 50 µM,–,–
CCCCCN(CCCCC)C(=O)[C@@H]1[C@H](C(=O)N(C)CC(=O)NCc2c(OC)cc(OC)cc2OC)C2CC(=O)[C@H]1c1cc(OCc3ccc(C(=O)N4CCC[C@H]4C(=O)N(C)C)cc3)ccc12 [Example 5],–,10 to 50 µM,–
CCCOC(=O)C1C(C(=O)OCC[Si](C)(C)C)C2C[C@H](Nc3ccccc3)[C@H]1c1cc(O)ccc12 (stereo partly drawn) [Example 114],–,–,NFkB inh. (NFκB; [3]): * (refers to percent inhibition from 6% to 64%); CXCR2 2 inh. (CXCR2): * (refers to percent inhibition from 10-36%)
CCCOC(=O)[C@H]1[C@H](C(=O)OCC[Si](C)(C)C)C2CC(N(C)C(C)=O)[C@H]1c1cc(O)ccc12 (stereo partly drawn) [Example 94],10 to 50 µM,–,–
CCCOC(=O)[C@H]1[C@H](C(=O)OCC[Si](C)(C)C)C2CC(NCc3ccc(C)cc3)[C@H]1c1cc(O)ccc12 (stereo partly drawn) [Example 84],10 to 50 µM,< 10 µM,–
CCCOC(=O)[C@H]1[C@H](C(=O)OCC[Si](C)(C)C)C2CC(O)[C@H]1c1cc(O)ccc12 (stereo partly drawn) [Example 82],10 to 50 µM,< 10 µM,–
CCCOC(=O)[C@H]1[C@H](C(=O)OCC[Si](C)(C)C)C2C/C(=N/OCC(=O)N3CCN(c4ccccc4)CC3)[C@H]1c1cc(O)ccc12 [Example 74],10 to 50 µM,–,–
CCCOC(=O)[C@H]1[C@H](C(=O)OCC[Si](C)(C)C)C2CC(=O)[C@H]1c1ccccc12 [Example 52],10 to 50 µM,–,inhibition at 20 µM (A549 cells; [2]): 6 to 64%
"CCCOC(=O)[C@H]1[C@H](C(=O)OCC[Si](C)(C)C)C2C/C(=N\OCc3cccc(F)c3)[C@H]1c1cc(O)ccc12 (racemic) [Example 72, 11-(3-Fluoro-benzyloxyimino)-4-hydroxy-tricyclo[6.2.2.0^2,7]dodeca-2(7),3,5-triene-9,10-dicarboxylic acid 10-propyl ester 9-(2-trimethylsilanyl-ethyl) ester]",–,< 10 µM,–
CCCOC(=O)[C@H]1[C@H](C(=O)OCC[Si](C)(C)C)C2C/C(=N\NCCO)[C@H]1c1cc(O)ccc12 [Example 56],–,< 10 µM,–
C[Si](C)(C)CCOC(=O)C1C2CC(=O)[C@@H](c3cc(O)ccc32)C1C(=O)OCC[Si](C)(C)C (stereo partly drawn) [Example 113],–,–,NFkB inh. (NFκB; [3]): * (refers to percent inhibition from 6% to 64%); IC50 (CXCR1): 10 to 50 µM; IC50 (CXCR2): 10 to 50 µM
CCCOC(=O)C1C(C(=O)OCC[Si](C)(C)C)C2C/C(=N\Nc3ccccc3Br)[C@H]1c1cc(O)ccc12 (stereo partly drawn) [Example 112],–,–,NFkB inh. (NFκB; [3]): * (refers to percent inhibition from 6% to 64%); IC50 (CXCR1): 10 to 50 µM; IC50 (CXCR2): < 10 µM
CCCOC(=O)[C@H]1[C@H](C(=O)OCC[Si](C)(C)C)C2CC(O)(CO)[C@H]1c1cc(O)ccc12 (stereo partly drawn) [Example 102],–,–,inhibition at 20 µM (A549 cells; [2]): 6 to 64%
CCCOC(=O)[C@@H]1C2C(=O)CC(c3ccc(O)cc32)[C@H]1C(=O)OCCC12CC3CC(CC(C3)C1)C2 (stereo partly drawn) [Example 108],10 to 50 µM,–,–
CCCOC(=O)[C@H]1[C@H](C(=O)OCC[Si](C)(C)C)C2CC(=CC(=O)OCC)[C@H]1c1cc(O)ccc12 [Example 98],–,–,inhibition at 20 µM (A549 cells; [2]): 6 to 64%
